Laboratory results reported in patent US11292792B2, “Tricyclic CRBN ligands and uses thereof” (Kymera Therapeutics, Inc., priority 2018, dated 2022).

Target: His-tagged CRBN-DDB1 complex (Homo sapiens (Human), UniProt Q96SW2)
Test: Time-resolved fluorescence resonance energy transfer (TR-FRET) assay, displacement of Cy5-labeled thalidomide
Assay type: binding
Details: read-out: CRBN HTRF IC50
Procedure: Equal volumes of His-tagged CRBN-DDB1 complex (56 nM) was mixed with Eu-cryptate labeled Anti-6HIS-monoclonal antibody (50× dilution from the commercial stock solution, Vender: Cisbio, Cat. #61HI2KLA) in a final buffer containing 20 mM HEPES pH 7.0, 150 mM NaCl, 0.005% Tween-20. […] The mixture were incubated at room temperature for 1 hour. FRET signals were measured on an EnVision plate reader (Perkin Elmer) by exciting at 340 nm and recording emission at both 615 nm as no FRET control and 665 nm as the FRET signals with a 60 microsecond delay. FRET efficiency was calculated as the ratio of fluorescent signals at […]. Quantitative loss of FRET efficiency as a function of compound concentrations was fitted by a four-parameter Logistic Function using GraphPad Prism 7.0 and the IC50 values were reported for each compound.
The compound numbers correspond to the compound numbers in Table 1.

Chain of His-tagged CRBN-DDB1 complex (Q96SW2 whole entry): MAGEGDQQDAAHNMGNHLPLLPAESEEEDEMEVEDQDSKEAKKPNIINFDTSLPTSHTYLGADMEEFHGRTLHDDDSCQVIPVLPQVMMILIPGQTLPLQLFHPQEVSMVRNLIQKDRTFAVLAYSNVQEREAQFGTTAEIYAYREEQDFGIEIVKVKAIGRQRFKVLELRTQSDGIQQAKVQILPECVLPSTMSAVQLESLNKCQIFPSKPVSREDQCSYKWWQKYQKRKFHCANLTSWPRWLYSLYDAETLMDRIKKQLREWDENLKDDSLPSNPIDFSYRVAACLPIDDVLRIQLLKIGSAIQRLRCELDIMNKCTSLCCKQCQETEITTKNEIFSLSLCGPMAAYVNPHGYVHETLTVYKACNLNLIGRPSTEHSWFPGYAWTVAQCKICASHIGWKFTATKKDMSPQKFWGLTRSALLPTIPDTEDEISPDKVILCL
Chain of His-tagged CRBN-DDB1 complex (Q16531 whole entry partner): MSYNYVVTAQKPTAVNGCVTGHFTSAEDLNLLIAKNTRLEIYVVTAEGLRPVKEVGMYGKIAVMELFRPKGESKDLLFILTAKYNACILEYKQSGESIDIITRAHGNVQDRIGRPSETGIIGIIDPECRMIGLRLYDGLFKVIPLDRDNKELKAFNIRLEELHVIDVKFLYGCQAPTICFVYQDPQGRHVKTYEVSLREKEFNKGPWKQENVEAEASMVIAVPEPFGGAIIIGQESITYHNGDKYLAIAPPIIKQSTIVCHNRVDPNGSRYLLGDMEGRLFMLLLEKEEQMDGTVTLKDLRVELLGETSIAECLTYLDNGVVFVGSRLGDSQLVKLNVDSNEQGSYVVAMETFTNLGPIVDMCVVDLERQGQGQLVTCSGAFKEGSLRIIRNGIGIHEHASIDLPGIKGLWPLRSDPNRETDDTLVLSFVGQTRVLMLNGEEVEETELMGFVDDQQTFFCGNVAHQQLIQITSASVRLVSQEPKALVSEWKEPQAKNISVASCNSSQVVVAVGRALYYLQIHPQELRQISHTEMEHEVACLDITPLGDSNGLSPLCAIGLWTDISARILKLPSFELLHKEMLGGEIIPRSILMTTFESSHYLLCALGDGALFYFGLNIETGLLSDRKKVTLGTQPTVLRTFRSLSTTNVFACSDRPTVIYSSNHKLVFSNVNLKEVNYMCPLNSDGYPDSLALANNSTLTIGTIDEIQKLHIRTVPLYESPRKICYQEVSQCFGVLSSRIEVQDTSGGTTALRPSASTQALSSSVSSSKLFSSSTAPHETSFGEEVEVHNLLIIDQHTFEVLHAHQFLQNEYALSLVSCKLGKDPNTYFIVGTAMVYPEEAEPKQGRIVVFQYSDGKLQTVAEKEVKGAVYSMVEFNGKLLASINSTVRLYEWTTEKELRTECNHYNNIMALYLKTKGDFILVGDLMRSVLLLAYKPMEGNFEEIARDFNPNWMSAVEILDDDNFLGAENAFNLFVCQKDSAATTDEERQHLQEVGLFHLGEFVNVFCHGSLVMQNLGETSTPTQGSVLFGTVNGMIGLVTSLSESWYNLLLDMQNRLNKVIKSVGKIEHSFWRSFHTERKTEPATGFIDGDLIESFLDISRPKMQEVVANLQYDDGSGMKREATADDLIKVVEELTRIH

| SMILES | IC50 [µM] |
| --- | --- |
| Cc1ccnc2c1c1ccccc1n2C1CCC(=O)NC1=O (stereo not shown) [I-77, 3-(4-methyl-9H-pyrido[2,3-b]indol-9-yl)piperidine-2,6-dione] | < 10 |
| Nc1ccc2c3ccccc3n(C3CCC(=O)NC3=O)c2n1 (stereo not shown) [I-78] | < 10 |
| N#Cc1ccc2c3ccccc3n(C3CCC(=O)NC3=O)c2n1 (stereo not shown) [I-81, 9-(2,6-dioxopiperidin-3-yl)-9H-pyrido[2,3-b]indole-2-carbonitrile] | 10 to 30 |
| COc1ccc2c3ccccc3n(C3CCC(=O)NC3=O)c2n1 (stereo not shown) [I-82] | 10 to 30 |
| O=C1CCC(n2c3ccccc3c3ncsc32)C(=O)N1 (stereo not shown) [I-87] | < 10 |
| O=C1CCC(n2c3ccc(Br)cc3c3ccsc32)C(=O)N1 (stereo not shown) [I-88] | < 10 |
| CC(=O)Nc1ccc2c3ccccc3n(C3CCC(=O)NC3=O)c2n1 (stereo not shown) [I-90, N-(9-(2,6-dioxopiperidin-3-yl)-9H-pyrido[2,3-b]indol-2-yl)acetamide] | 10 to 30 |
| NCc1ccc2c3ccccc3n(C3CCC(=O)NC3=O)c2n1 (stereo not shown) [I-91, 3-(2-(aminomethyl)-9H-pyrido[2,3-b]indol-9-yl)piperidine-2,6-dione] | 30 to 100 |
| O=C1CCC(n2c3ccccc3n3ccnc23)C(=O)N1 (stereo not shown) [I-99] | 30 to 100 |
| O=C1CCC(n2c3cccc(F)c3c3cccnc32)C(=O)N1 (stereo not shown) [I-100] | < 10 |
| O=C1CCC(n2c3cc(Br)ccc3c3cccnc32)C(=O)N1 (stereo not shown) [I-102, 3-3-(7-Bromopyrido[2,3-b]indol-9-yl)piperidine-2,6-dione] | 10 to 30 |
| O=C1CCC(n2c3cccc(Br)c3c3ccsc32)C(=O)N1 (stereo not shown) [I-103, 3-(4-bromo-8H-thieno[2,3-b]indol-8-yl)piperidine-2,6-dione] | < 10 |
| O=C1CCC(n2c3ccccc3c3ccnc(O)c32)C(=O)N1 (stereo not shown) [I-105] | 10 to 30 |
| O=C1CCC(n2c3cc(Cl)ccc3c3cccnc32)C(=O)N1 (stereo not shown) [I-106, 3-(7-chloro-9H-pyrido[2,3-b]indol-9-yl)piperidine-2,6-dione] | 10 to 30 |

The next lines start with the values.

| IC50 [µM] | SMILES |
| --- | --- |
| < 10 | CNc1ccc2c3ccccc3n(C3CCC(=O)NC3=O)c2n1 (stereo not shown) [I-79, 3-(2-(methylamino)-9H-pyrido[2,3-b]indol-9-yl)piperidine-2,6-dione] |
| 10 to 30 | CN(C)c1ccc2c3ccccc3n(C3CCC(=O)NC3=O)c2n1 (stereo not shown) [I-80, 3-(2-(dimethylamino)-9H-pyrido[2,3-b]indol-9-yl)piperidine-2,6-dione] |
| < 10 | O=C1CCC(n2c3ccccc3c3ccc(O)nc32)C(=O)N1 (stereo not shown) [I-83, 3-(2-hydroxy-9H-pyrido[2,3-b]indol-9-yl)piperidine-2,6-dione] |
| < 10 | O=C1CCC(n2c3ccccc3c3ccc(F)nc32)C(=O)N1 (stereo not shown) [I-84] |
| 10 to 30 | O=C1CCC(n2c3ccccc3c3ccc(C(F)(F)F)nc32)C(=O)N1 (stereo not shown) [I-85] |
| < 10 | Cc1ccc2c3ccccc3n(C3CCC(=O)NC3=O)c2n1 (stereo not shown) [I-86, 3-(2-methyl-9H-pyrido[2,3-b]indol-9-yl)piperidine-2,6-dione] |
| < 10 | O=C1CCC(n2c3ccccc3c3c(Br)csc32)C(=O)N1 (stereo not shown) [I-89, 3-(3-bromo-8H-thieno[2,3-b]indol-8-yl)piperidine-2,6-dione] |
| < 10 | O=C1CCC(n2c3ccc(Br)cc3c3ccc(F)nc32)C(=O)N1 (stereo not shown) [I-92, 3-(6-bromo-2-fluoro-9H-pyrido[2,3-b]indol-9-yl)piperidine-2,6-dione] |
| < 10 | O=C1CCC(n2c3ccccc3c3c(Cl)csc32)C(=O)N1 (stereo not shown) [I-93, 3-(3-chloro-8H-thieno[2,3-b]indol-8-yl)piperidine-2,6-dione] |
| 30 to 100 | O=C1CCC(n2ccn3c4ccccc4nc23)C(=O)N1 (stereo not shown) [I-94] |
| < 10 | O=C1CCC(n2c3cc(F)ccc3c3cccnc32)C(=O)N1 (stereo not shown) [I-101] |
